Reference: US20250263753A1, “BRIDGED CYCLE-BASED INHIBITORS OF DNA-DEPENDENT PROTEIN KINASE AND COMPOSITIONS AND APPLICATION IN GENE EDITING” (Juno Therapeutics, Inc., priority 2023, published 2025)
Like-named read-outs stand apart in the source and are kept apart here.

Experiments:
[1] = biological target: DNA-PK (Homo sapiens (Human), UniProt P78527); test: DNA-PK biochemical assay (Reaction Biology HotSpot kinase assay, 10 μM ATP)
Description: DNA-PK Biochemical Assay Using Reaction Biology's HotSpot Kinase Assay Protocol:
Reagent: Base Reaction buffer; 20 mM Hepes (pH 7.5), 10 mM MgCl2, 1 mM EGTA, 0.01% Brij35, 0.02 mg/ml BSA, 0.1 mM Na3VO4, 2 mM DTT, 1% DMSO Required cofactors are added individually to each kinase reaction.
Reaction Procedure: 1. Prepare substrate in freshly prepared Reaction Buffer; 2. Deliver any required cofactors to the substrate solution above; 3. Deliver kinase into the substrate solution and gently mix; 4. Deliver compounds in 100% DMSO into the kinase reaction mixture by Acoustic technology (Echo550; nanoliter range), incubate for 20 min at room temperature; 5. Deliver 33P-ATP into the reaction mixture to initiate the reaction; 6. Incubate for 2 hours at room temperature; 7. Detect kinase activity by P81 filter-binding method.

[2] = biological target: ATM (Homo sapiens (Human), UniProt Q13315); test: ATM biochemical assay (Reaction Biology HTRF kinase assay, 10 μM ATP); settings: class symbol
Description: Ataxia-Telangiectasia Mutated (ATM) Biochemical Assay Using Reaction Biology's HTRF Kinase Assay Protocol:
The assay detects kinase activity by antibody based HTRF assay. The GST-tagged p53 protein serves as substrate and Eu-labeled-antibody with specific phosphorylation site binds upon phosphorylation which is monitored by HTRF from the anti-GST-d2.
Reagent: Reaction buffer; 50 mM Hepes (pH 7.5), 150 mM NaCl, 10 mM MnCl2, 1% Glycerol, 0.01% Brij35, 1 mM DTT, 1% DMSO.
Substrate: Human p53 (aa2-393), RBC produced in E. coli, N-terminal GST-Tag, MW=70.42 kDa.
Detection; MAb Anti-p53-pS15-Eu cryptate, CisBio cat #61P08KAZ; MAb Anti GST-d2
Reaction Procedure: 1. Deliver 2× Enzyme in wells of reaction plate except No E control wells. Add buffer instead; 2. Deliver compounds in 100% DMSO into the kinase reaction mixture by Acoustic technology (Echo550; nanoliter range), incubate for 30 min at room temperature; 3. Deliver 2× substrate+ATP mixture into the reaction mixture to initiate the reaction; 4. Incubate for 2 hours at room temperature.
HTRF Detection: 1. Deliver 2× Stop/Detection mixture and incubate for 2 hours to overnight in the dark. 2. HTRF measurement (Ex/Em1/Em2=320/615/665 nm) in EnVision.

[3] = biological target: PI3Kδ (His-PIK3CD/PIK3R1, p110 delta/p85 alpha) (Homo sapiens (Human), UniProt O00329); test: PI3Kδ biochemical assay (HTRF/FRET probe); assay type: binding; settings: class symbol
Description: Phosphoinositide 3-kinase (PI3K) Biochemical Assay: A solution was prepared containing 0.2 nM Anti-HIS-Terbium (Cisbio, 64CUSTAZU), 40 nM designed-probe and 1.0 nM His-PIK3CD/PIK3R1 (p110 delta/p85 alpha) in FRET Buffer (20 mM HEPES, 10 mM MgCl2, 0.015% Brij-35, 4 mM DTT, 0.05 mg/mL BSA).

[4] = biological target: PI3Kα (His-PIK3CA/PIK3R1, p110 alpha/p85 alpha) (Homo sapiens (Human), UniProt P42336); test: PI3Kα biochemical assay (HTRF/FRET probe); assay type: binding; settings: class symbol
Description: Phosphoinositide 3-kinase α (PI3Kα) Biochemical Assay: A solution was prepared containing 0.2 nM Anti-HIS-Terbium (Cisbio, 64CUSTAZU), 3.7 nM designed-probe and 1.0 nM His-PIK3CA/PIK3R1 (p110 alpha/p85 alpha) in FRET Buffer (20 mM HEPES, 10 mM MgCl2, 0.015% Brij-35, 4 mM DTT, 0.05 mg/mL BSA).

[5] = read-out: DNA-PK HotSpot 10 μM ATP IC50, class symbol

PI3Kδ (His-PIK3CD/PIK3R1, p110 delta/p85 alpha), sequence (O00329 whole entry, species assumed): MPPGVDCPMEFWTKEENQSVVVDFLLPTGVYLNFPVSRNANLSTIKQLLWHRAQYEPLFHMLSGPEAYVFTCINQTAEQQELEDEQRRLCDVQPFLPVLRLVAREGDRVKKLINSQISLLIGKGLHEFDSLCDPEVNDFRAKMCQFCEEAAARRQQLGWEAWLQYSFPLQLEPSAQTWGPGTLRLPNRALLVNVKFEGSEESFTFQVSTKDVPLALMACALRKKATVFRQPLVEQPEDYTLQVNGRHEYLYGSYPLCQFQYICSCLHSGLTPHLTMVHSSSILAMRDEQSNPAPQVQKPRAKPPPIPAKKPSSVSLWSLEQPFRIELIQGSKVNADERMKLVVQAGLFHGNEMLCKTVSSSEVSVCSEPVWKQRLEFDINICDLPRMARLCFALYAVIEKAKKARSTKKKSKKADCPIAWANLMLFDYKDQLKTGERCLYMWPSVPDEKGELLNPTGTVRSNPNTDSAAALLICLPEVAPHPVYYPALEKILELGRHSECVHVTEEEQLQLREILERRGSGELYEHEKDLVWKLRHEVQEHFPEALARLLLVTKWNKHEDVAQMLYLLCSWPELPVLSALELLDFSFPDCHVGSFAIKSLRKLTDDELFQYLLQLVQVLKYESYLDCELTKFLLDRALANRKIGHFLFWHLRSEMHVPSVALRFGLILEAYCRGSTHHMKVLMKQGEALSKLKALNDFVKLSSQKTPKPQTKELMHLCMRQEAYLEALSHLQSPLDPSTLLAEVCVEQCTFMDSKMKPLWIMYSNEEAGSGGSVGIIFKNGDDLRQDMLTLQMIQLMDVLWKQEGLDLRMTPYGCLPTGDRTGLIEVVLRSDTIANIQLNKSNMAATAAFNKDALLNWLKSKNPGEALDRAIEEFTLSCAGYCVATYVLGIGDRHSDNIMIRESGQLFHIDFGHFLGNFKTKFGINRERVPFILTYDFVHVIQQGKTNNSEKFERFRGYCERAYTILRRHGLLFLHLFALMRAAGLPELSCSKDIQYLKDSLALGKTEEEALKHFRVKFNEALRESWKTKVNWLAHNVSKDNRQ
PI3Kδ (His-PIK3CD/PIK3R1, p110 delta/p85 alpha), sequence (P27986 whole entry partner, species assumed): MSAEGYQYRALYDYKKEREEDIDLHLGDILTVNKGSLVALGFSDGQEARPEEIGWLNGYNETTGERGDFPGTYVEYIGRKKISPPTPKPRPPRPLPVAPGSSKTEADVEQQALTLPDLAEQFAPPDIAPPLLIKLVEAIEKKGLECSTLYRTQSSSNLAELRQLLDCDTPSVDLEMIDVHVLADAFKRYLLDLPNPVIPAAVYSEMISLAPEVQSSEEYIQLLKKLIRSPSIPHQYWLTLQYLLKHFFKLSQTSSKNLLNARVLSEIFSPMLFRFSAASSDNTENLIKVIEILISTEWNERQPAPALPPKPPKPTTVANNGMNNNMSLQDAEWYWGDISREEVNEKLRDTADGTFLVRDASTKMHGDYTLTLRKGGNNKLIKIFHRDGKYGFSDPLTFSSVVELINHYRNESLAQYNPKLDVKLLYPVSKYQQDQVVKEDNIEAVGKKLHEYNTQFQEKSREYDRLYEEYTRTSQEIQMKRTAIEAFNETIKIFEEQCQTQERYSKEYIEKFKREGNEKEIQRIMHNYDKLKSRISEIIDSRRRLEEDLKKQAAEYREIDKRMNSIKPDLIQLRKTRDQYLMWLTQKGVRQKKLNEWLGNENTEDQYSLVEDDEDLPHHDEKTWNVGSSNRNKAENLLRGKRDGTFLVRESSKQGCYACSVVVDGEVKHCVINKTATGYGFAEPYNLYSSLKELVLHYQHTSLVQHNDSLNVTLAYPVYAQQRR
PI3Kα (His-PIK3CA/PIK3R1, p110 alpha/p85 alpha), sequence (P42336 whole entry, species assumed): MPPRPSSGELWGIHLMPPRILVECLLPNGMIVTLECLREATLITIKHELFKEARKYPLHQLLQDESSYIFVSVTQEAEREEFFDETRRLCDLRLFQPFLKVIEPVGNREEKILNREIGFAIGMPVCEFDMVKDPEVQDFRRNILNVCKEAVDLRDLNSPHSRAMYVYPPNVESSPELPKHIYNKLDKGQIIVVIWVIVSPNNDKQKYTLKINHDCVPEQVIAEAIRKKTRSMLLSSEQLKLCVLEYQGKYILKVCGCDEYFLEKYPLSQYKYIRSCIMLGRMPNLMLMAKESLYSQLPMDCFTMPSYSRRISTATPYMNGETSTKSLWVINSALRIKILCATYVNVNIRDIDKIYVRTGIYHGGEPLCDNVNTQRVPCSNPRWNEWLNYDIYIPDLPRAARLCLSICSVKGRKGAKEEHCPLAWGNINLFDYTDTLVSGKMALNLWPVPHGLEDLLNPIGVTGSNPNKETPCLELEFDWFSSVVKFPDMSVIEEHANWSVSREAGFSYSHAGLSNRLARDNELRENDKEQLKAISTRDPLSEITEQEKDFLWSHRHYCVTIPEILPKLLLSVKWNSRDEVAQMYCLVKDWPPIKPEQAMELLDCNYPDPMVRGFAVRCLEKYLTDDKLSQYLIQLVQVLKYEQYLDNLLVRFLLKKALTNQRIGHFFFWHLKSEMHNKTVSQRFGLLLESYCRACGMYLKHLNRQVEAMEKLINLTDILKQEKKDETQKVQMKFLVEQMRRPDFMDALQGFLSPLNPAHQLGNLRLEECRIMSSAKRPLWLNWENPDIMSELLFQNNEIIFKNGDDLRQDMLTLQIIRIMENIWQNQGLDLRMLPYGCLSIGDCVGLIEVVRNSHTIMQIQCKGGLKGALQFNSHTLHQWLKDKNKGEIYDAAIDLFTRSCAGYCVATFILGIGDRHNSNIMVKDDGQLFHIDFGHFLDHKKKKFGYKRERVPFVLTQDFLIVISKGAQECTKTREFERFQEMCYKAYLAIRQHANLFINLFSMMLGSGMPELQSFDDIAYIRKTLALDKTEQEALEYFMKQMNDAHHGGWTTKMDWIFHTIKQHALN
PI3Kα (His-PIK3CA/PIK3R1, p110 alpha/p85 alpha), sequence (P27986 whole entry partner, species assumed): as the sequence (P27986 whole entry partner, species assumed) above

IC50 ([1]; class symbol)	IC50 [2]	IC50 [3]	IC50 [4]	IC50 [1, 5]	Compound
0.001 to 0.01 µM	0.01 to 0.1 µM	≥ 1 µM	0.1 to 1 µM		Cc1cc2c(cc1Nc1ncc3c(n1)n(C14CC(CC#N)(C1)C4)c(=O)n3C)OCO2 [Compound 23, 2-(3-(7-methyl-2-((6-methylbenzo[d][1,3]dioxol-5-yl)amino)-8-oxo-7,8-dihydro-9H-purin-9-yl)bicyclo[1.1.1]pentan-1-yl)acetonitrile]
0.001 to 0.01 µM	0.1 to 1 µM	≥ 1 µM	≥ 1 µM		Cc1cc2c(cc1Nc1ncc3c(n1)n(C14CC(C#N)(C1)C4)c(=O)n3C)OCO2 [Compound 17, 3-(7-methyl-2-((6-methylbenzo[d][1,3]dioxol-5-yl)amino)-8-oxo-7,8-dihydro-9H-purin-9-yl) bicyclo[1.1.1]pentane-1-carbonitrile]
	0.01 to 0.1 µM	≥ 1 µM	0.1 to 1 µM	< 0.001 µM	Cc1cc2c(cc1Nc1ncc3c(n1)n(C14CCC(C#N)(CC1)CC4)c(=O)n3C)OCO2 [Compound 24, 4-(7-methyl-2-((6-methylbenzo[d][1,3]dioxol-5-yl)amino)-8-oxo-7,8-dihydro-9H-purin-9-yl) bicyclo[2.2.2]octane-1-carbonitrile]
	0.01 to 0.1 µM	0.1 to 1 µM	0.1 to 1 µM	< 0.001 µM	Cc1cc2nccnc2cc1Nc1ncc2c(n1)n(C13CCC(O)(CC1)C3)c(=O)n2C [Compound 4, 9-(4-hydroxybicyclo[2.2.1]heptan-1-yl)-7-methyl-2-((7-methylquinoxalin-6-yl)amino)-7,9-dihydro-8H-purin-8-one]
	0.01 to 0.1 µM	≥ 1 µM	0.01 to 0.1 µM	< 0.001 µM	Cc1cc2c(cc1Nc1ncc3c(n1)n(C14CCC(O)(CC1)CC4)c(=O)n3C)OCO2 [Compound 27, 9-(4-hydroxybicyclo[2.2.2]octan-1-yl)-7-methyl-2-((6-methylbenzo[d][1,3]dioxol-5-yl)amino)-7,9-dihydro-8H-purin-8-one]
	0.01 to 0.1 µM	0.1 to 1 µM	0.01 to 0.1 µM	< 0.001 µM	COC12CCC(n3c(=O)n(C)c4cnc(Nc5cc6nccnc6cc5C)nc43)(CC1)C2 [Compound 9, 9-(4-methoxybicyclo[2.2.1]heptan-1-yl)-7-methyl-2-((7-methylquinoxalin-6-yl)amino)-7,9-dihydro-8H-purin-8-one]
	0.1 to 1 µM	≥ 1 µM	0.01 to 0.1 µM	< 0.001 µM	COC12CCC(n3c(=O)n(C)c4cnc(Nc5cc6c(cc5C)OCCO6)nc43)(CC1)C2 [Compound 10, 9-(4-methoxybicyclo[2.2.1]heptan-1-yl)-7-methyl-2-((7-methyl-2,3-dihydrobenzo[b][1,4]dioxin-6-yl)amino)-7,9-dihydro-8H-purin-8-one]
0.001 to 0.01 µM	0.001 to 0.01 µM	≥ 1 µM	0.1 to 1 µM		Cc1cc2ncnn2cc1Nc1ncc2c(n1)n(C13CC(CC#N)(C1)C3)c(=O)n2C [Compound 22, 2-(3-(7-methyl-2-((7-methyl-[1,2,4]triazolo[1,5-a]pyridin-6-yl)amino)-8-oxo-7,8-dihydro-9H-purin-9-yl)bicyclo[1.1.1]pentan-1-yl)acetonitrile]
	0.01 to 0.1 µM	≥ 1 µM	≥ 1 µM	< 0.001 µM	COC12CCC(N3CC(=O)N(C)c4cnc(Nc5cn6ncnc6cc5C)nc43)(CC1)C2 [Compound 62, 8-(4-methoxybicyclo[2.2.1]heptan-1-yl)-5-methyl-2-((7-methyl-[1,2,4]triazolo[1,5-a]pyridin-6-yl)amino)-7,8-dihydropteridin-6(5H)-one]
	0.1 to 1 µM	≥ 1 µM	0.1 to 1 µM	< 0.001 µM	Cc1cc2nccnc2cc1Nc1ncc2c(n1)N(C13CC(F)(C1)C3)C(=O)C21CC1 [Compound 72, 7′-(3-fluorobicyclo[1.1.1]pentan-1-yl)-2′-((7-methylquinoxalin-6-yl)amino)spiro[cyclopropane-1,5′-pyrrolo[2,3-d]pyrimidin]-6′(7′H)-one]
	0.01 to 0.1 µM	0.1 to 1 µM	0.1 to 1 µM	< 0.001 µM	Cc1cc2nonc2cc1Nc1ncc2c(n1)N(C13CCC(O)(CC1)C3)CC(=O)N2C [Compound 60, 8-(4-hydroxybicyclo[2.2.1]heptan-1-yl)-5-methyl-2-((6-methylbenzo[c][1,2,5]oxadiazol-5-yl)amino)-7,8-dihydropteridin-6(5H)-one]
0.001 to 0.01 µM	0.1 to 1 µM	≥ 1 µM	0.1 to 1 µM		COC12CCC(n3c(=O)n(C)c4cnc(Nc5cc(F)c(C(N)=O)cc5C)nc43)(C1)C2 [Compound 40, 2-fluoro-4-((9-(4-methoxybicyclo[2.1.1]hexan-1-yl)-7-methyl-8-oxo-8,9-dihydro-7H-purin-2-yl)amino)-5-methylbenzamide]
0.001 to 0.01 µM	0.1 to 1 µM	≥ 1 µM	≥ 1 µM		COC12CCC(n3c(=O)n(C)c4cnc(Nc5cn6ncnc6cc5C)nc43)(C1)C2 [Compound 29, 9-(4-methoxybicyclo[2.1.1]hexan-1-yl)-7-methyl-2-((7-methyl-[1,2,4]triazolo[1,5-a]pyridin-6-yl)amino)-7,9-dihydro-8H-purin-8-one]
	0.1 to 1 µM	0.1 to 1 µM	0.01 to 0.1 µM	< 0.001 µM	Cc1cc2nccnc2cc1Nc1ncc2c(n1)N(C13CCC(O)(CC1)C3)C(=O)C21CC1 [Compound 67, 7′-(4-hydroxybicyclo[2.2.1]heptan-1-yl)-2′-((7-methylquinoxalin-6-yl)amino)spiro[cyclopropane-1,5′-pyrrolo[2,3-d]pyrimidin]-6′(7′H)-one]
0.001 to 0.01 µM	0.001 to 0.01 µM	≥ 1 µM	0.1 to 1 µM		COCC12CC(n3c(=O)n(C)c4cnc(Nc5cn6ncnc6cc5C)nc43)(C1)C2 [Compound 20, 9-(3-(methoxymethyl)bicyclo[1.1.1]pentan-1-yl)-7-methyl-2-((7-methyl-[1,2,4]triazolo[1,5-a]pyridin-6-yl)amino)-7,9-dihydro-8H-purin-8-one]
	0.01 to 0.1 µM	≥ 1 µM	0.1 to 1 µM	< 0.001 µM	Cc1cc2c(cc1Nc1ncc3c(n1)n(C14CCC(O)(CC1)C4)c(=O)n3C)OCCO2 [Compound 5, 9-(4-hydroxybicyclo[2.2.1]heptan-1-yl)-7-methyl-2-((7-methyl-2,3-dihydrobenzo[b][1,4]dioxin-6-yl)amino)-7,9-dihydro-8H-purin-8-one]
0.001 to 0.01 µM	0.001 to 0.01 µM	≥ 1 µM	0.1 to 1 µM		COC12CCC(n3c(=O)n(C)c4cnc(Nc5cc(F)c(-c6cnco6)cc5C)nc43)(C1)C2 [Compound 41, 2-((5-fluoro-2-methyl-4-(oxazol-5-yl)phenyl)amino)-9-(4-methoxybicyclo[2.1.1]hexan-1-yl)-7-methyl-7,9-dihydro-8H-purin-8-one]
0.001 to 0.01 µM	0.1 to 1 µM	≥ 1 µM	≥ 1 µM		Cc1cc2c(cc1Nc1ncc3c(C)nn(C45CC(C4)C5)c3n1)OCO2 [Compound 48, 1-(bicyclo[1.1.1]pentan-1-yl)-3-methyl-N-(6-methylbenzo[d][1,3]dioxol-5-yl)-1H-pyrazolo[3,4-d]pyrimidin-6-amine]
	0.1 to 1 µM	≥ 1 µM	≥ 1 µM	< 0.001 µM	Cc1cc2ncnn2cc1Nc1ncc2c(n1)N(C13CC(F)(C1)C3)C(=O)C21CC1 [Compound 70, 7′-(3-fluorobicyclo[1.1.1]pentan-1-yl)-2′-((7-methyl-[1,2,4]triazolo[1,5-a]pyridin-6-yl)amino)spiro[cyclopropane-1,5′-pyrrolo[2,3-d]pyrimidin]-6′(7′H)-one]
